Experimental data published in patent US8835500B2, “Pharmaceutical formulations of amyloid inhibiting compounds” (BHI Limited Partership, priority 2003, dated 2014).

What was measured:
[1] = Gastrointestinal symptoms after administration of solid dosage form (capsules); type: in vivo
Description: (§1) Furthermore, the non-hygroscopic nature of the acid form makes it desirable as active pharmaceutical ingredient. To further protect against any possible gastrointestinal intolerance that could result from the acid form, the tablets were enteric-coated and a modified-release agent was added to control any rapid release of the drug in the stomach and the intestine, respectively.

[2] = Pharmacokinetics of NC-758-1 in mild to moderate Alzheimer's Disease patients, 12 weeks BID (Example 10); type: in vivo; conditions: human, plasma, oral, AD patients; for Tmax: median
[3] = Part I: multiple rising oral dose pharmacokinetics of NC-758 in healthy young and elderly subjects (Example 8); type: in vivo, human; conditions: fasted; for Tmax: median
Description: (§2) In the following examples and elsewhere herein, terms are as defined below. The pharmacokinetic parameters were derived by non-compartmental analysis using WinNonlin Version 2.1. • Cmax—the maximum observed plasma concentration. • Tmax—the time of occurrence of Cmax. • AUC0-t—the area under the plasma concentration versus time curve from time zero to the last sampling time at which concentrations were at or above the limit of quantification, calculated by the linear trapezoidal rule. • AUC∞—the area under the plasma concentrations versus time curve from time zero to infinity, calculated from AUC0-t+(Clast/λz), where Clast is the last observed quantifiable concentration and λz is the apparent terminal rate constant. • t1/2—the apparent terminal half-life, calculated from 1n 2λz.
The pharmacokinetic profile of multiple rising oral doses of 3-APS free acid (NC-758 of Table 3 above) in healthy male young subjects (18-45 years) and healthy male and female elderly (≧55 years) subjects was assessed. The pharmacokinetic profile of a titrated multiple oral rising dose regimen of NC-758 was also assessed in one group of healthy male young (18-45 years) subjects. […] Part I was a randomized, double-blind, placebo-controlled study to assess the pharmacokinetic profile of 2 multiple rising oral doses of NC-758 in healthy young (18-45 years) male subjects. […] In Part I, blood samples were collected through 24 h after the first dose on Day 1, before each morning dose on Days 2 to 11, and through 48 h after the final dose on Day 12. For Part II, blood samples were collected through 36 and 48 h, respectively. Plasma concentrations of 3-APS were determined using a validated LC-MS/MS method.

[4] = Hygroscopic nature of the active ingredient; type: physicochemical
[5] = Single oral dose pharmacokinetics of NC-758-1 in healthy elderly volunteers (Example 9); type: in vivo, human; conditions: elderly (≧55 years) male and female subjects, fasted; for Tmax: median
Description: as §2
The pharmacokinetic profile and the effect of food on single oral doses of 3-APS free acid (modified-release enteric-coated tablet as described in Table 5 above, hereinafter “NC-758-1”) in healthy male and female elderly (≧55 years) volunteers. The test was an open label, three-period crossover study to assess the pharmacokinetic profile of 3 single oral doses of NC-758-1 in healthy elderly (≧55 years) male and female subjects. The blood samples were collected during 24 h following dosing. Plasma concentrations of 3-APS were determined using a validated LC-MS/MS method.

CSF Aβ42 = CSF Aβ42 and Aβ42/Aβ40 ratio in mild-to-moderate AD patients; type: in vivo, human
Description: FIG. 1 Change from Baseline CSF Aβ42 versus 3-APS doses
FIG. 2 Effect of 3-APS on CSF Aβ42/40 Ratio in Mild-to-Moderate AD Patients—Placebo vs. 150 mg BID

[6] = dog, in vivo
Description: as §1

[7] = Crossing of the blood/brain barrier; design: species or system human; conditions: in vivo
[8] = Single rising oral dose pharmacokinetics of NC-758 in healthy young and elderly male volunteers (Example 7); type: in vivo, human; conditions: for Tmax: median
Description: as §2
The pharmacokinetic profile and the effect of food on single rising oral doses of 3-APS free acid (modified-release enteric-coated tablet, as described in Table 3 above, hereinafter “NC-758”) in healthy male young (18-45 years) volunteers was determined. The pharmacokinetics of a single oral dose of NC-758 was also determined in a group of healthy male elderly (≧55 years old) volunteers. The test was a randomized, double-blind, placebo-controlled study to assess the pharmacokinetic profile of 4 single rising oral doses of NC-758 in healthy young (18-45 years) male subjects. Blood samples were collected during 24 h following dosing. Plasma concentrations of 3-APS were determined using a validated LC-MS/MS method.

[9] = Pharmacokinetics of NC-758-1 in mild to moderate Alzheimer's Disease patients, 12 weeks BID (Example 10); type: in vivo; conditions: human, plasma, oral, AD patients; for AUC(0-inf): only patients with estimable elimination rate constant; for Tmax: median
Description: as §2
A multicenter, randomized, double-blind, placebo-controlled and parallel designed study has been completed with NC-758-1 from Table 5 above in patients suffering from mild to moderate Alzheimer's Disease (AD). This study included assessing the pharmacokinetic/pharmacodynamic profile in AD patients.
A total of fifty-eight (58) mild to moderate AD patients (MMSE scores=13 to 26) were enrolled from 6 centers in the United States. Patients were randomized to receive in 1:1:1:1 ratio of NC-758-1 at 50, […], 150 mg BID or placebo BID for 12 weeks. Study medication was administered orally (tablet). Each patient was evaluated on 6 occasions at screening, baseline [Week 0], weeks 2, 4, 8 and 12. Blood samples were collected from each patient prior to dosing and at specified time points through 12 h post-dose after the first dose (Week 0) and the last dose (Week 12). Blood samples were also collected prior to the first dose of the day during Week 2, 4 and 8 visits.

[10] = 200 mg dose, elderly vs. young (Tables 9 and 10)
[11] = 50 mg, Alzhemed (NC-758-1) 50 mg BID, Week 0 (single dose), mean
[12] = 150 mg, Alzhemed (NC-758-1) 150 mg BID, Week 0 (single dose), mean

NCCCS(=O)(=O)[O-].[Na+] [3-amino-1-propanesulfonic acid, sodium salt]
gastrointestinal symptoms (i.e. nausea and vomiting) [1]: associated with gastrointestinal symptoms

NCCCS(=O)(=O)O [3-APS, 3-amino-1-propanesulfonic acid]
Cmax ([2]; 50 mg, Alzhemed (NC-758-1) 50 mg BID, Week 12 (repeated), mean): 451 ng/mL | AUC(0-t) ([2]; 50 mg, Alzhemed (NC-758-1) 50 mg BID, Week 12 (repeated), mean, read-out: AUC0-t (AUCss for Week 12)): 1980 ng·h/mL | Tmax ([2]; 50 mg, Alzhemed (NC-758-1) 50 mg BID, Week 12 (repeated)): 3 h | Cmax ([2]; 100 mg, Alzhemed (NC-758-1) 100 mg BID, Week 0 (single dose), mean): ~618 ng/mL | AUC(0-inf) ([2]; 100 mg, Alzhemed (NC-758-1) 100 mg BID, Week 0 (single dose), mean, only patients with estimable elimination rate constant): ~2570 ng·h/mL | AUC(0-t) ([2]; 100 mg, Alzhemed (NC-758-1) 100 mg BID, Week 0 (single dose), mean, read-out: AUC0-t): ~2470 ng·h/mL | Tmax ([2]; 100 mg, Alzhemed (NC-758-1) 100 mg BID, Week 0 (single dose)): ~4.7 h | Cmax ([2]; 100 mg, Alzhemed (NC-758-1) 100 mg BID, Week 12 (repeated), mean): 538 ng/mL | AUC(0-t) ([2]; 100 mg, Alzhemed (NC-758-1) 100 mg BID, Week 12 (repeated), mean, read-out: AUC0-t (AUCss for Week 12)): 2590 ng·h/mL | Tmax ([2]; 100 mg, Alzhemed (NC-758-1) 100 mg BID, Week 12 (repeated)): 3.5 h | AUC(0-t) ([2]; 150 mg, Alzhemed (NC-758-1) 150 mg BID, Week 0 (single dose), mean, read-out: AUC0-t): ~2790 ng·h/mL | AUC(0-t) ([2]; 150 mg, Alzhemed (NC-758-1) 150 mg BID, Week 12 (repeated), mean, read-out: AUC0-t (AUCss for Week 12)): 3570 ng·h/mL | Tmax ([2]; 150 mg, Alzhemed (NC-758-1) 150 mg BID, Week 12 (repeated)): 3 h | Tmax ([3]; NC-758 200 mg BID, Day 1, elderly (≧55 years) male and female subjects): 6 h | Tmax ([3]; NC-758 200 mg BID, Day 12, young (18-45 years) male subjects): 4 h | Tmax ([3]; both sexes, human, plasma, oral, 200 mg, NC-758 200 mg BID, Day 12, elderly (≧55 years) male and female subjects, read-out: Tmax): 5 h | AUC(0-t) ([3]; human, plasma, oral, NC-758 100 mg BID, Day 1, young (18-45 years) male subjects, mean, read-out: AUC0-12 h): 1330 ng·h/mL | Tmax ([3]; male, human, plasma, oral, 100 mg, NC-758 100 mg BID, Day 1, young (18-45 years) male subjects, read-out: Tmax): 6 h | Tmax ([3]; male, human, plasma, oral, 100 mg, NC-758 100 mg BID, Day 12, young (18-45 years) male subjects, read-out: Tmax): 2.5 h | Tmax ([3]; male, human, plasma, oral, 200 mg, NC-758 200 mg BID, Day 1, young (18-45 years) male subjects, read-out: Tmax): 4 h | hygroscopic nature [4]: non-hygroscopic | Tmax ([5]; NC-758-1 single oral 50 mg): 5 h | Tmax ([5]; NC-758-1 single oral 100 mg): 5 h | AUC∞ ([5]; NC-758-1 single oral 150 mg, mean, only subjects with estimable elimination rate constant): 4497 ng·h/mL | Tmax ([5]; NC-758-1 single oral 150 mg): 5 h | ratio of Aβ42/Aβ40 (CSF Aβ42; CSF, mild-to-moderate AD patients, FIGS. 2, 3 and 4): reduced the ratio of Aβ42/Aβ40 | baseline CSF Aβ42 (CSF Aβ42; FIG. 1): reduced baseline CSF Aβ42 | tolerability [6]: better tolerated than the sodium salt form | crossing of the blood/brain barrier [7]: crossed the blood/brain barrier | AUC0-t greater in elderly subjects compared to young subjects [8, 10]: approximately 70% | Cmax greater in elderly subjects compared to young subjects [8, 10]: approximately 70% | Tmax ([8]; NC-758 single oral 200 mg, elderly (>55 years) male subjects, fasted): 5 h | Tmax ([8]; NC-758 single oral 200 mg, young (18-45 years) male subjects, fasted): 5 h | Tmax ([8]; NC-758 single oral 300 mg, young (18-45 years) male subjects, fasted): 5 h | Tmax ([8]; human, plasma, NC-758 single oral 100 mg, young (18-45 years) male subjects, fasted, read-out: Tmax): 5 h | AUC(0-inf) ([8]; human, plasma, NC-758 single oral 200 mg, elderly (>55 years) male subjects, fasted, calculated for one individual only): 5760 ng·h/mL | AUC(0-t) [9, 11]: ~1320 ng·h/mL | Cmax [9, 11]: ~310 ng/mL | AUC(0-inf) [9, 11]: ~1400 ng·h/mL | Tmax ([9]; 50 mg, Alzhemed (NC-758-1) 50 mg BID, Week 0 (single dose)): ~6 h | Cmax [9, 12]: ~624 ng/mL | AUC(0-inf) [9, 12]: ~3420 ng·h/mL | Tmax ([9]; 150 mg, Alzhemed (NC-758-1) 150 mg BID, Week 0 (single dose)): ~6 h | Cmax ([9]; 150 mg, Alzhemed (NC-758-1) 150 mg BID, Week 12 (repeated), mean): 639 ng/mL
